Data taken from patent publication US8642657B2 (Gruenenthal GmbH, priority 2003, dated 2014).

Tests used:
rat VR1 [1] = target: T1, rat VR1 (Rattus norvegicus, UniProt O35433); test: [3H]resiniferatoxin (RTX) competition binding assay, VR1-transfected CHO cells
T1 construct: expressed in transfected cells
Description: The pUHG102 VR1 plasmid was transfected into CHO cells containing the pTet Off regulatory plasmid (Clontech). In these cells, expression of the VR1 is repressed in the presence of tetracycline but is induced upon removal of the antibiotic. Stable clones were isolated in culture medium containing puromycin (10 μg/mL) and maintained in HAM F12 medium supplemented with tetracycline (1 μg/mL), 5 μg/ml geniticin, 25 mM HEPES, 10% FBS. Cells utilized for assays were grown in culture medium without antibiotic for 48 h before use. Cells were seeded in T75 cell culture flasks in media without antibiotics and grown to approximately 90% confluence. The flasks were then washed with PBS and harvested in 0.25% trypsin, 1 mM EDTA. The cells were pelleted by gentle centrifugation and stored at −20° C. until assay.
Competition Binding Assay
Binding studies with [^3H]resiniferatoxin (RTX) were carried out as described previously with minor modifications (Szallasi et al., 1992). Binding assay mixtures were set up on ice and contained 50-100 pM [^3H]RTX, various concentrations of competing ligands, 0.25 mg/mL BSA (Cohn fraction V), and about 5×10^5 VR1-transfected cells. The final volume was adjusted to 350 μL with DPBS with Ca^2+ and Mg^2+ and 0.25 mg/mL bovine serum albumin. Non-specific binding was determined in the presence of 100 nM nonradioactive RTX. The binding reaction was initiated by transferring the assay mixtures to a 37° C. water bath and was terminated after a 60 min incubation period by cooling the tubes on ice. To reduce non-specific binding, 200 μg/ml α-glycoprotein was added. Membrane-bound RTX was then separated from the free by pelleting the membranes in a Beckman 12 benchtop centrifuge (15 min, maximal velocity), the tips of the tubes containing the pellets were cut off, and the radioactivity was determined by scintillation counting. Equilibrium binding parameters (Ki and cooperativity) were determined by fitting the Hill equation to the measured values with the aid of the program MicroCal Origin 6.0.
(§1) Initial stocks were dissolved in DMSO. For the binding assays, compounds were diluted in with DPBS with Ca^2+ and Mg^2+ and 0.25 mg/mL bovine serum albumin. For the calcium uptake assays, compounds were diluted in DMEM with 0.25 mg/mL bovine serum albumin.

rat VR1 [2] = target: T1, rat VR1; test: 45Ca2+-uptake assay in CHO/VR1 cells, antagonism of capsaicin-stimulated uptake; assay type: cell-based; conditions: 45Ca2+ uptake stimulated by 50 nM capsaicin
Description: as §1
Molecules were characterized to determine whether they were full agonists, partial agonists, or antagonists. For studies of ^45Ca^2+ uptake by CHO/VR1 cells (Tet-off cells), the cells were plated in 24-well plates to yield a cell density 20-40% of that required to produce confluence. The next day the medium was changed to remove the tetracycline and induce VR1 expression. Experiments were performed approximately 36-40 hours after induction. For ^45Ca^2+ uptake assay, cells were incubated for 5 min at 37° C. in a total volume of 400 μL of serum free DMEM (containing 1.8 mM CaCl2) in the presence of 0.25 mg/mL BSA (Sigma), 1 μCi/mL ^45Ca^2+ (5-30 Ci/g from ICN, CA), and increasing concentrations of the compound to be tested. Immediately after the incubation, extracellular ^45Ca^2+ was removed by washing the cells three times with cold DPBS (containing 1.8 mM CaCl2). Then 400 μl RIPA buffer (50 mM Tris pH 7.4; 150 mM NaCl; 1% Triton X-100; 0.1% SDS; 1% sodium deoxycholate) was added to each well in order to lyse the cells. Plates were shaken slowly for 20 min; then 306 μL of cell lysate was transferred from each well into a scintillation vial and radioactivity was determined by scintillation counting. For each data point in each experiment, four wells were assayed. Data from these experiments were analyzed by computer fit to the Hill equation. At least 3 separate experiments were carried out for each compound. In order to determine antagonist activity, studies were performed in exactly the same fashion with the exception that 50 nM capsaicin was added to the assay mixture to stimulate ^45Ca^2+ uptake.

[3] = competition with [3H]RTX, rat VR1 in CHO cells, read-out: Ki (nM) Binding Affinity

T1 sequence (O35433 whole entry): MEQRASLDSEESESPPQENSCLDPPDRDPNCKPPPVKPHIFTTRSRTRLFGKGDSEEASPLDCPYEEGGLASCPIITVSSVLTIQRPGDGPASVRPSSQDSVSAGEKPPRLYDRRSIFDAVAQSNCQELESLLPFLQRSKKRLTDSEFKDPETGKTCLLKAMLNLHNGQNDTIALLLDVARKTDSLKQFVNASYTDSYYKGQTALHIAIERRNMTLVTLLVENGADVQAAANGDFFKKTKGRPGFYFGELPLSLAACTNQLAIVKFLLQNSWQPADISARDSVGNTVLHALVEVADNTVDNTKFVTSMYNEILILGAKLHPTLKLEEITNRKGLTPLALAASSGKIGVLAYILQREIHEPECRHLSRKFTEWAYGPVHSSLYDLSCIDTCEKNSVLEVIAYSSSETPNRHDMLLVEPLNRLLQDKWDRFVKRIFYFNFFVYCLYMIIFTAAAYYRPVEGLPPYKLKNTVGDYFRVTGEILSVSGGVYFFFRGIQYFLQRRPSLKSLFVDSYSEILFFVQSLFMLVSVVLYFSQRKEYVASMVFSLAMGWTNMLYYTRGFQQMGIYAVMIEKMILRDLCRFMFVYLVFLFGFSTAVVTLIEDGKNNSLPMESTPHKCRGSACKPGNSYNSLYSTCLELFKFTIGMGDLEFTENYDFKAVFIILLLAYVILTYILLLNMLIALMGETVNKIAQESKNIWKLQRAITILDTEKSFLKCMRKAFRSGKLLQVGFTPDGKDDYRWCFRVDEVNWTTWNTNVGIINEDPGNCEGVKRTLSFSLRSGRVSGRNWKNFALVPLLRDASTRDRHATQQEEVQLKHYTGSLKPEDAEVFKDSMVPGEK

| Molecule | Ki (rat VR1 [1]) | melting point | Ki (rat VR1 [2]) | Ki (rat VR1 [1]; [3]) |
| --- | --- | --- | --- | --- |
| C[C@H](C(=O)NC[C@H](COC(=O)C(C)(C)C)Cc1ccc(C(C)(C)C)cc1)c1ccc(NS(C)(=O)=O)c(F)c1 [6-9, N-[(2R)-2-(4-t-Butylbenzyl)-3-(pivaloyloxy)propyl]-(2S)-2-[3-fluoro-4-(methylsulfonylamino)phenyl]propionamide] | 4.24 nM | 44 to 46 °C | 0.58 nM | – |
| CC(C)(C)c1ccc(CNC(=O)C(C)(C)c2ccc(NS(C)(=O)=O)cc2)cc1 [9-7, N-(4-tert-Butylbenzyl)-2-[4-(methylsulfonylamino)phenyl]-2-methylpropionamide] | 425 nM | 141 to 143 °C | 2550 nM | – |
| C[C@H](NC(=S)NCc1ccc(C(C)(C)C)cc1)c1ccc(NS(C)(=O)=O)c(F)c1 [17-8, (S)—N-(4-t-Butylbenzyl)-N′-{1-[3-fluoro-4-(methylsulfonylamino)phenyl]ethyl}thiourea] | 2580 nM | – | 4310 nM | – |
| C[C@@H](NC(=S)N[C@@H](COC(=O)C(C)(C)C)Cc1ccccc1)c1ccc(NS(C)(=O)=O)cc1 [19-13, N-[(2R)-3-phenyl-1-pivaloyloxy-2-propyl]-N′-[(R)-α-methyl-4-(methylsulfonylamino)benzy]thiourea] | 420 nM | 59 to 61 °C | 193 nM | – |
| CC(NC(=O)NCc1ccc(C(C)(C)C)cc1)c1ccc(NS(C)(=O)=O)cc1 (stereo not shown) [23-1, N-(4-t-Butylbenzyl)-N′-{1-[4-(methylsulfonylamino)phenyl]ethyl}urea] | 1190 nM | 95 to 98 °C | 544 nM | – |
| C[C@@H](C(=O)NCc1ccc(C(C)(C)C)cc1)c1ccc(NS(C)(=O)=O)c(F)c1 [3-6, N-(4-tert-Butylbenzyl)-(2R)-2-[3-fluoro-4-(methylsulfonylamino)phenyl]propionamide] | 458 nM | – | 102 nM | – |
| C[C@@H](NC(=S)NCc1ccc(C(C)(C)C)cc1)c1ccc(NS(C)(=O)=O)c(F)c1 [17-7, (R)—N-(4-t-Butylbenzyl)-N′-{1-[3-fluoro-4-(methylsulfonylamino)phenyl]ethyl}thiourea] | 32.8 nM | – | 39.4 nM | – |
| C[C@@H](C(=O)NC[C@@H](COC(=O)C(C)(C)C)Cc1ccccc1)c1ccc(NS(C)(=O)=O)c(F)c1 [6-7, N-[(2S)-2-Benzyl-3-(pivaloyloxy)propyl]-(2R)-2-[3-fluoro-4-(methylsulfonylamino)phenyl]propionamide] | – | – | 205 nM | 372 nM |
| CC(C)(C)c1ccc(CNC(=S)NC2(c3ccc(NS(C)(=O)=O)cc3)CC2)cc1 [22-7, N-(4-t-Butylbenzyl)-N′-{1-[4-(methylsulfonylamino)phenyl]cyclopropyl}thiourea] | – | 110 to 113 °C | 60.3 nM | 171 nM |
| COc1cc(C2(C(=O)NCC(COC(=O)C(C)(C)C)Cc3ccc(C)c(C)c3)CC2)ccc1NS(C)(=O)=O (stereo not shown) [12-3, N-[2-(3,4-Dimethylbenzyl)-3-pivaloyloxypropyl]-1-[3-methoxy-4-(methylsulfonylamino)phenyl]cyclopropanecarboxamide] | – | 66 to 68 °C | 117 nM | 238 nM |
| C[C@@H](NC(=S)NCC(COC(=O)C(C)(C)C)Cc1ccc(C(C)(C)C)cc1)c1ccc(NS(C)(=O)=O)cc1 (stereo partly drawn) [18-10, N-[2-(4-tert-Butylbenzyl)-3-(pivaloyloxy)propyl]-N′-{(1R)-1-[4-(methylsulfonylamino)phenyl]ethyl}thiourea] | 9.95 nM | 88 to 90 °C | 23.9 nM | – |
| Cc1ccc(CCC(=O)NC(C)c2ccc(NS(C)(=O)=O)c(F)c2)cc1C (stereo not shown) [24-4, N-{1-[3-Fluoro-4-(methylsulfonylamino)phenyl]ethyl}-3-(3,4-dimethylphenyl)propanamide] | – | 176 to 177 °C | 4130 nM | – |
| C[C@@H](C(=O)NC[C@H](COC(=O)C(C)(C)C)Cc1ccccc1)c1ccc(NS(C)(=O)=O)c(F)c1 [6-8, N-[(2R)-2-Benzyl-3-(pivaloyloxy)propyl]-(2R)-2-[3-fluoro-4-(methylsulfonylamino)phenyl]propionamide] | – | – | 98.3 nM | 297 nM |
| N-{1-[3-Fluoro-4-(methylsulfonylamino)phenyl]ethyl}-3-(4-chlorophenyl)propenamide [24-6] | – | – | 5650 nM | – |
| CC(C)(C)c1ccc(CNC(=S)NC(C)(C)c2ccc(NS(C)(=O)=O)cc2)cc1 [21-7, N-(4-t-Butylbenzyl)-N′-{1-methyl-1-[4-(methylsulfonylamino)phenyl]ethyl}thiourea] | – | 161 to 164 °C | 1830 nM | – |
| N-(4-t-Butylbenzyl)-N-{1-[4-(methylsulfonylamino)phenyl]ethyl}thiourea [15-1] | – | – | 14.7 nM | 59.3 nM |
| Cc1ccc(C[C@H](CNC(=S)N[C@H](C)c2ccc(NS(C)(=O)=O)cc2)COC(=O)C(C)(C)C)cc1C [18-7, N-[(2R)-2-(3,4-Dimethylbenzyl)-3-(pivaloyloxy)propyl]-N′-{(1R)-1-[4-(methylsulfonylamino)phenyl]ethyl}thiourea] | 15.2 nM | – | 7.14 nM | – |
| C[C@@H](NC(=S)NCc1ccc(C(C)(C)C)cc1)c1ccc(NS(C)(=O)=O)cc1 [16-5, N-(4-t-Butylbenzyl)-N′-{(1R)-1-[4-(methylsulfonylamino)phenyl]ethyl}thiourea] | – | – | 4.52 nM | 40.8 nM |
| C[C@H](C(=O)NC[C@@H](COC(=O)C(C)(C)C)Cc1ccccc1)c1ccc(NS(C)(=O)=O)c(F)c1 [6-6, N-[(2S)-2-Benzyl-3-(pivaloyloxy)propyl]-(2S)-2-[3-fluoro-4-(methylsulfonylamino)phenyl]propionamide] | – | – | 10 nM | 20.3 nM |
| Cc1ccc(CCCNC(=O)[C@@H](C)c2ccc(NS(C)(=O)=O)c(F)c2)cc1C [4-17, N-[3-(3,4-Dimethylphenyl)propyl]-(2S)-2-[3-fluoro-4-(methylsulfonylamino)phenyl]propionamide] | 236 nM | – | 33.7 nM | – |
| Cc1ccc(CC(CNC(=S)N[C@H](C)c2ccc(NS(C)(=O)=O)cc2)COC(=O)C(C)(C)C)cc1C (stereo partly drawn) [18-6, N-[2-(3,4-Dimethylbenzyl)-3-(pivaloyloxy)propyl]-N′-{(1R)-1-[4-(methylsulfonylamino)phenyl]ethyl}thiourea] | 6.1 nM | – | 6.86 nM | – |
| C[C@H](C(=O)NCc1ccc(C(C)(C)C)cc1)c1ccc(NS(C)(=O)=O)c(F)c1 [3-5, N-(4-tert-Butylbenzyl)-(2S)-2-[3-fluoro-4-(methylsulfonylamino)phenyl]propionamide] | 43.9 nM | – | 6.87 nM | – |
| Oc1cc2c(cc1O)CN(C(=S)NCCc1ccc(Cl)cc1)CCC2 [capsazepine, reference compound] | – | – | 520 nM | 1300 nM |
| Cc1ccc(CCCNC(=O)[C@H](C)c2ccc(NS(C)(=O)=O)c(F)c2)cc1C [4-16, N-[3-(3,4-Dimethylphenyl)propyl]-(2R)-2-[3-fluoro-4-(methylsulfonylamino)phenyl]propionamide] | – | – | 204 nM | 944 nM |
| C[C@@H](NC(=S)N[C@H](COC(=O)C(C)(C)C)Cc1ccccc1)c1ccc(NS(C)(=O)=O)cc1 [19-14, N-[(2S)-3-phenyl-1-pivaloyloxy-2-propyl]-N′-[(R)-α-methyl-4-(methylsulfonylamino)benzy]thiourea] | 272 nM | – | 290 nM | – |
| COc1ccc(CNC(=O)C(C)c2ccc(NS(C)(=O)=O)c(F)c2)cc1 (stereo not shown) [4-9, N-(4-Methoxybenzyl)-2-[3-fluoro-4-(methylsulfonylamino)phenyl]propionamide] | – | 138 °C | 1350 nM | – |
